Measured values as given in article PMC6413952, “Discovery of ABBV-4083, a novel analog of Tylosin A that has potent anti-Wolbachia and anti-filarial activity” (PLoS Neglected Tropical Diseases, 2019).
Where two headings read alike, the source gives them in different places.

Tests used:
[1] = Cardiovascular effects in dogs; format: in vivo; settings: administered to dogs
Source text: (§1) As a preclinical candidate, ABBV-4083 has been evaluated in a variety of in vitro assays assessing preclinical safety. […] In preparation for first-in-human studies, the safety of ABBV-4083 has been extensively evaluated in 28-day GLP general and reproductive toxicity studies. In addition, the synthesis has been adapted to produce GMP quality supplies.

[2] = In vitro genotoxicity screening assays; format: cell-based
Source text: as §1

[3] = In vitro phospholipidosis assay; format: cell-based
Source text: as §1

[4] = system: gram(+) and gram(-) microorganisms; set-up: method as in PMID 30867321; settings: majority of panel; cited from earlier work
[5] = system: Litomosoides sigmodontis / Wolbachia; test: Litomosoides sigmodontis microfilariae-positive jird model; format: in vivo, jirds (Meriones unguiculatus)
Experimental: As described previously, female BALB/c mice or female jirds were infected at 6–8 weeks of age with L. sigmodontis larvae through the bites of Ornithonyssus bacoti mites.
Starting at 14 weeks post infection, microfilariae-positive jirds (n = 7 per group) were dosed PO with ABBV-4083 (150 mg/kg QD) dissolved in 0.5% HPMC/0.02% Tween-80 or vehicle using a volume of 5ml/kg. Microfilariae numbers were assessed through visual inspection of blood samples collected from the saphenous vein at weekly intervals post-dosing. For this, 10 μl of peripheral blood were diluted in 300 μl of Hinkelmann solution (0.5% Eosin Y, 0.5% Phenol, 0.185% Formaldehyde in aqua dest). After 5 minutes of centrifugation at 400g, the supernatant was discarded and the pellet transferred for microscopic quantification of the microfilariae. At 16 weeks post-treatment, jirds were euthanized by an overdose of isoflurane; worms were recovered from the pleural cavity and counted. Remaining intact female adult worms were used to assess embryogenesis and the Wolbachia load. For the latter, genomic DNA (gDNA) was extracted from individual female adult worms and quantification of the Wolbachia ftsZ (wLs-ftsZ) and L. sigmodontis β-actin (Ls-act) gene copy numbers was performed by quantitative real-time PCR (qPCR).
For embryograms, remaining intact female adult worms were individually homogenized in 20% Hinkelmann/80% PBS solution, diluted 1:10 in PBS and quantified by microscopy. Embryonal stages were differentiated as egg, morulae, pretzel and stretched microfilariae.

[6] = Rat oral pharmacokinetic study (plasma AUC, C8hr); format: in vivo, Sprague-Dawley rats; settings: for AUC*/EC50: potency-weighted AUC
Experimental: PO doses were administrated by oral gavage, IP doses by intraperitoneal injection to BALB/c mice or Sprague-Dawley rats (Charles River Laboratories, USA). Serial blood samples collected into EDTA anticoagulant for plasma concentration analysis were obtained from each animal after dosing. EDTA preserved plasma samples were extracted by protein precipitation with acetonitrile fortified with internal standards. The supernatant was injected into an HPLC-MS/MS system for separation and quantitation. Detection was accomplished using a triple quadrupole mass spectrometer operated either in electrospray or atmospheric chemical ionization (APCI) mode. The area under the plasma concentration-time curve (AUC) was calculated using the linear trapezoidal rule.

hERG channel = hERG channel (Homo sapiens, UniProt Q12809); test: Functional hERG channel activity; format: biochemical; settings: maximum concentration of 30 μM
Chain of hERG channel (Q12809 whole entry): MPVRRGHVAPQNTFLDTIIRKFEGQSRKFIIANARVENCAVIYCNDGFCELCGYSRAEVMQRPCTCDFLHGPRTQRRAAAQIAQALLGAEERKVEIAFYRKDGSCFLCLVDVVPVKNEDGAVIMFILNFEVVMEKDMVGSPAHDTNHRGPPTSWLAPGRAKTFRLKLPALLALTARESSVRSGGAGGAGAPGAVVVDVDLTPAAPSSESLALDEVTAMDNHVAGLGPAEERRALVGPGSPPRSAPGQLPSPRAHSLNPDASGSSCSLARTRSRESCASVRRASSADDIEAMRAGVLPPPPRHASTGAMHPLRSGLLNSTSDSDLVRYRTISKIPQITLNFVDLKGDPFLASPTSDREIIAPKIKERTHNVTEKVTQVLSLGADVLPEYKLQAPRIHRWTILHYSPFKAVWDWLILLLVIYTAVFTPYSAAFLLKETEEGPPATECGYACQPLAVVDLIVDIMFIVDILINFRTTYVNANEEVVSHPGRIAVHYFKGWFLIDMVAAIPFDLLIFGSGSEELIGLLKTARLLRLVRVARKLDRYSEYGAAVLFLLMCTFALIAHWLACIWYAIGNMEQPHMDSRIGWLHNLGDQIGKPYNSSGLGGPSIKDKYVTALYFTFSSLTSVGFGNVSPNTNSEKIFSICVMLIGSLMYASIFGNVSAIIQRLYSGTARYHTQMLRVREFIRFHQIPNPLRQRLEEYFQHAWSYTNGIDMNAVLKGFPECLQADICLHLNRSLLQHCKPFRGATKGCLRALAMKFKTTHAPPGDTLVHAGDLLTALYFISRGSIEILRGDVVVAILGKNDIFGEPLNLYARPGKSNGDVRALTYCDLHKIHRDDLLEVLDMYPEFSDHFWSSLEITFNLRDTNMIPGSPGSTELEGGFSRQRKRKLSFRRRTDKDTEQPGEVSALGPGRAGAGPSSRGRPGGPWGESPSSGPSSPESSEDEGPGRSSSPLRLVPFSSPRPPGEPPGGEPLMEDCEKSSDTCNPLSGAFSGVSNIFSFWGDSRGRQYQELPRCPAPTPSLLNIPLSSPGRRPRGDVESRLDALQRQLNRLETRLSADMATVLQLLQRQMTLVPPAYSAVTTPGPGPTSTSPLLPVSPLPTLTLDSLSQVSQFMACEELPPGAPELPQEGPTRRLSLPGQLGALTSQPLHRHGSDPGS
Source text: as §1

[7] = In vitro high-content steatosis screen; format: cell-based
Source text: as §1

[8] = system: Wolbachia pipientis in Aedes albopictus C6/36 (wAlbB) insect cells; test: A·WOL Wolbachia-infected Aedes albopictus (C6/36 wAlbB) 7-day cell-based assay, high content imaging
Source text: Compounds were screened for anti-Wolbachia activity in vitro in the A·WOL-validated Wolbachia-infected Aedes albopictus (C6/36 wAlbB) 7-day cell-based assay which utilizes a 384-well format assay with high content imaging (HCI) (Operetta) as described previously.
We began our work by selecting a diverse and representative sample of the AbbVie antibiotics collection (129 compounds) for single-point testing against Wolbachia pipientis in an insect cell line. […] While TylA has a long history of use in multiple animal species, it has never been studied in humans; and its activity against Wolbachia has not previously been reported.

[9] = system: Litomosoides, Brugia and Onchocerca; set-up: method as in PMID 30867321; settings: cited from earlier work; for anti-Wolbachia efficacy compared with doxycycline: shorter durations of treatment
receptors = test: Battery of 35 assays assessing general selectivity; format: binding; settings: maximum concentration of 10 μM
Source text: as §1

[10] = system: 77 mammalian receptors, ion channels, enzymes and transporters; set-up: method as in PMID 30867321; settings: cited from earlier work

CC[C@H]1OC(=O)C[C@@H](O)[C@H](C)[C@@H](O[C@@H]2O[C@H](C)[C@@H](O[C@H]3C[C@@](C)(O)[C@@H](OCc4ccc(F)cc4)[C@H](C)O3)[C@H](N(C)C)[C@H]2O)[C@@H](CC=O)C[C@@H](C)C(=O)/C=C/C(C)=C/[C@@H]1CO[C@@H]1O[C@H](C)[C@@H](O)[C@@H](OC)[C@H]1OC [Compound 5d]
cardiovascular effects [1]: did not produce significant cardiovascular effects
genotoxicity [2]: neither mutagenic nor clastogenic
phospholipidosis [3]: No potential to induce phospholipidosis
change in susceptibility compared with TylA [4]: little to no change in susceptibility
Wolbachia depletion ([5]; 150mg/kg 14days QD, Fig 3A): -99,91%
embryogenesis (embryograms of female worms) ([5]; 150 mg/kg PO QD 14 days, 16 weeks post treatment start): near-complete loss of all embryonic forms including eggs
circulating microfilariae ([5]; 150 mg/kg PO QD 14 days, from 12 weeks pti until 16 weeks pti): completely cleared
reduction of Wolbachia levels in recovered female adult worms ([5]; 150 mg/kg PO once daily for 14 days, 16 weeks post-treatment-initiation): > 99.9%
C*8hr ([6]; PO rats, C(8hr)/dose): 0.75 ng/mL per mg/kg
AUC* parent ([6]; PO, Sprague-Dawley rats, AUC* = AUC/dose): 16 ng-hr/ml per mg/kg
AUC* TylA (metabolite) ([6]; PO, Sprague-Dawley rats, primary metabolite TylA, AUC/dose): <0.6 ng-hr/ml per mg/kg
potency-weighted 8-hr drug level (C8hr/dose/EC50) relative to TylA ([6]; oral dosing): 2,000 fold
potency-weighted AUC (AUC*/EC50) relative to TylA ([6]; oral dosing): 2,500 fold
improvement in plasma drug levels (AUC) over TylA ([6]; oral dosing, rats): 1.7 fold
metabolic stability of substituent / species observed in plasma ([6]; oral pharmacokinetic study): only parent drug is observed in the plasma
C*8hr/ EC50 ([6]; potency-weighted 8-hr drug level, PO rats): 39.5 ng/ml/nM per mg/kg
AUC*/EC50 ([6]; PO rats): 842 ng-hr/ml/nM per mg/kg
AUC*/EC50 ([6]; rat): 842,000 ng-hr/ml/uM per mg/kg
inhibition of functional hERG channel activity (hERG channel): did not inhibit
steatosis [7]: did not induce steatosis
EC50 ([8]; C6/36, Wolbachia-infected insect cells, geometric mean (N), each N a duplicate measurement): 0.019 nM
potency improvement (EC50) over TylA ([8]; EC50 lower than parent TylA): 1,500 fold
direct microfilaricidal activity [9]: not directly microfilaricidal
anti-Wolbachia efficacy compared with doxycycline [9]: superior to doxycycline
anti-Wolbachia efficacy compared with doxycycline ([9]; listed as ABBV-4083): equals or exceeds the efficacy of doxycycline
interactions with receptors in 35 selectivity assays (receptors): no significant interactions with any receptors
interactions across 77 assays [10]: significant interaction was only observed in two assays
